Measurements as given in patent US8729078B2, “Inhibitors of bruton's tyrosine kinase” (Hoffmann-La Roche Inc., priority 2011, dated 2014).

Assays:
Btk = Btk (Homo sapiens (Human), UniProt Q06187); assay: Bruton's Tyrosine Kinase (Btk) inhibition assay (FRET BTK); type: biochemical
[1] = tested on: B cells in human whole blood (CD69 expression); assay: Inhibition of B cell activation in whole blood measured by CD69 expression; type: cell-based; details: anti-IgM stimulation, CD69-positive CD20-positive cells
Experimental: Inhibition of B Cell Activation in Whole Blood Measured by CD69 Expression
A procedure to test the ability of Btk inhibitors to suppress B cell receptor-mediated activation of B cells in human blood is as follows:
Human whole blood (HWB) is obtained from healthy volunteers, with the following restrictions: 24 hr drug-free, non-smokers. Blood is collected by venipuncture into Vacutainer tubes anticoagulated with sodium heparin. Test compounds are diluted to ten times the desired starting drug concentration in PBS (20×), followed by three-fold serial dilutions in 10% DMSO in PBS to produce a nine point dose-response curve. 5.5 μl of each compound dilution is added in duplicate to a 2 ml 96-well V bottom plate (Analytical Sales and Services, #59623-23); 5.5 μl of 10% DMSO in PBS is added to control and no-stimulus wells. HWB (100 μl) is added to each well, and after mixing the plates are incubated at 37 C, 5% CO2, 100% humidity for 30 minutes. Goat F(ab′)2 anti-human IgM (Southern Biotech, #2022-14) (10 μl of a 500 μg/ml solution, 50 μg/ml final concentration) is added to each well (except the no-stimulus wells) with mixing and the plates are incubated for an additional 20 hours.
At the end of the 20 hour incubation, samples are incubated with florescent-probe-labeled anti-bodies (15 μl PE Mouse anti-Human CD20, BD Pharmingen, #555623, and/or 20 ul APC Mouse anti-Human CD69, BD Pharmingen #555533) for 30 minutes, at 37 C, 5% CO2, 100% humidity. Included are induced control, unstained and single stains for compensation adjustments and initial voltage settings. Samples are then lysed with 1 ml of 1× Pharmingen Lyse Buffer (BD Pharmingen #555899), and plates are centrifuged at 1800 rpm for 5 minutes. Supernatants are removed via suction and the remaining pellets are lysed again with another 1 ml of 1× Pharmingen Lyse Buffer, and plates are spun down as before. Supernatants are aspirated and remaining pellets are washed in FACs buffer (PBS+1% FBS). After a final spin, the supernantants are removed and pellets are resuspended in 180 μl of FACs buffer. Samples are transferred to a 96 well plate suitable to be run on the HTS 96 well system on the BD LSR II flow cytometer.
Using appropriate excitation and emission wavelengths for the fluorophores used, data are acquired and percent positive cell values are obtained using Cell Quest Software. Results are initially analyzed by FACS analysis software (Flow Jo). […] The IC50 values are calculated using XLfit software version 3, equation 201.

Btk, sequence (Q06187 whole entry): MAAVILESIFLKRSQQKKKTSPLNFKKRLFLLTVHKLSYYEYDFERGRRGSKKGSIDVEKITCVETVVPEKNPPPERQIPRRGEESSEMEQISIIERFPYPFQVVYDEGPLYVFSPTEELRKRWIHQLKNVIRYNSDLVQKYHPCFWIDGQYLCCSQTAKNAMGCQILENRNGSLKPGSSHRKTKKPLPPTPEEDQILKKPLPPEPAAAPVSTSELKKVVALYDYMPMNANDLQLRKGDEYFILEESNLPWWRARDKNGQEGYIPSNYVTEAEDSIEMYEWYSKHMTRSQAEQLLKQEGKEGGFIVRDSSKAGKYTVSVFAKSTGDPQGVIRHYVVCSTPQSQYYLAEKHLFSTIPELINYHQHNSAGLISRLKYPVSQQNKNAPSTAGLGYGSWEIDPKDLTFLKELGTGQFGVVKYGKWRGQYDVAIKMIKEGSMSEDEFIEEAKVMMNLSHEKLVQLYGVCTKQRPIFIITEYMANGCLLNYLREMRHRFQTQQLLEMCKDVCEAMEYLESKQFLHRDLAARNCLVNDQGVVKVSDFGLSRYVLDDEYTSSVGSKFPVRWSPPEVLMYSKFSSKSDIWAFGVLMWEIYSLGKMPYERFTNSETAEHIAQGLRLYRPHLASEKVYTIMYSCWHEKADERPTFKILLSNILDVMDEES

SMILES | IC50 (Btk) [nM] | IC50 [1] [nM]
Cc1nc(-c2cccc(-n3ncc4cc(C(C)(C)C)ccc4c3=O)c2CO)oc1C(N)=O [Compound I-6, 2-[3-(6-tert-Butyl-1-oxo-1H-phthalazin-2-yl)-2-hydroxymethyl-phenyl]-4-methyl-oxazole-5-carboxylic acid amide] | 1260 | > 5000
CC(C)(C)c1cc(F)c2c(=O)n(-c3cccc(-n4cc(C(N)=O)c(Nc5ccc(C(=O)N6CCOCC6)cc5)n4)c3)ncc2c1 [Compound I-21, 1-[3-(6-tert-Butyl-8-fluoro-1-oxo-1H-phthalazin-2-yl)-phenyl]-3-[4-(morpholine-4-carbonyl)-phenylamino]-1H-pyrazole-4-carboxylic acid amide] |  | 260
Cn1cc(-c2cccc(-n3ncc4cc(C(C)(C)C)cc(F)c4c3=O)c2CO)nc1C(N)=O [Compound I-8, 4-[3-(6-tert-Butyl-8-fluoro-1-oxo-1H-phthalazin-2-yl)-2-hydroxymethyl-phenyl]-1-methyl-1H-imidazole-2-carboxylic acid amide] | 18.2 | 1910
Cn1cc(-c2cccc(-n3ncc4cc(C(C)(C)C)ccc4c3=O)c2CO)cc1C(N)=O [Compound I-4, 4-[3-(6-tert-Butyl-1-oxo-1H-phthalazin-2-yl)-2-hydroxymethyl-phenyl]-1-methyl-1H-pyrrole-2-carboxylic acid amide] | 11.6 | 3600
Cn1c(C(N)=O)ccc1-c1cccc(-n2ncc3cc(C(C)(C)C)ccc3c2=O)c1CO [Compound I-5, 5-[3-(6-tert-Butyl-1-oxo-1H-phthalazin-2-yl)-2-hydroxymethyl-phenyl]-1-methyl-1H-pyrrole-2-carboxylic acid amide] |  | 4370
CC(C)(C)c1cc(F)c2c(=O)n(-c3cccc(-c4ccc(C(N)=O)o4)c3CO)ncc2c1 [Compound I-10, 5-[3-(6-tert-Butyl-8-fluoro-1-oxo-1H-phthalazin-2-yl)-2-hydroxymethyl-phenyl]-furan-2-carboxylic acid amide] | 832 | > 5000
CC(C)(C)c1cc(F)c2c(=O)n(-c3cccc(-c4nc(C(N)=O)cs4)c3CO)ncc2c1 [Compound I-7, 2-[3-(6-tert-Butyl-8-fluoro-1-oxo-1H-phthalazin-2-yl)-2-hydroxymethyl-phenyl]-thiazole-4-carboxylic acid amide] | 130 | > 5000
CC(C)(C)c1ccc2c(=O)n(-c3cccc(-n4cc(C(N)=O)c(Nc5ccc(C(=O)N6CCOCC6)cc5)n4)c3CO)ncc2c1 [Compound I-19, 1-[3-(6-tert-Butyl-1-oxo-1H-phthalazin-2-yl)-2-hydroxymethyl-phenyl]-3-[4-(morpholine-4-carbonyl)-phenylamino]-1H-pyrazole-4-carboxylic acid amide] |  | 48
CC(C)(C)c1cc(F)c2c(=O)n(-c3cccc(-n4cc(C(N)=O)c(Nc5ccc(C(=O)N6CCOCC6)cc5)n4)c3CO)ncc2c1 [Compound I-20, 1-[3-(6-tert-Butyl-8-fluoro-1-oxo-1H-phthalazin-2-yl)-2-hydroxymethyl-phenyl]-3-[4-(morpholine-4-carbonyl)-phenylamino]-1H-pyrazole-4-carboxylic acid amide] |  | 10
CN(C)Cc1ccc2c(C(N)=O)cn(-c3cccc(-n4ncc5cc(C(C)(C)C)cc(F)c5c4=O)c3CO)c2n1 [Compound I-52, 1-[3-(6-tert-Butyl-8-fluoro-1-oxo-1H-phthalazin-2-yl)-2-hydroxymethyl-phenyl]-6-dimethylaminomethyl-1H-pyrrolo[2,3-b]pyridine-3-carboxylic acid amide] |  | 1070
CC(C)(C)c1cc(F)c2c(=O)n(-c3cccc(-n4cc(C(N)=O)c5ccccc54)c3CO)ncc2c1 [Compound I-17, 1-[3-(6-tert-Butyl-8-fluoro-1-oxo-1H-phthalazin-2-yl)-2-hydroxymethyl-phenyl]-1H-indole-3-carboxylic acid amide] |  | 2660
Cn1cc(-c2cccc(-n3ncc4cc(C(C)(C)C)cc(CO)c4c3=O)c2CO)cc1C(N)=O [Compound I-12, 4-[3-(6-tert-Butyl-8-hydroxymethyl-1-oxo-1H-phthalazin-2-yl)-2-hydroxymethyl-phenyl]-1-methyl-1H-pyrrole-2-carboxylic acid amide] | 696 | > 500
CC(C)(C)c1ccc2c(=O)n(-c3cccc(-c4c[nH]c(C(N)=O)c4)c3CO)ncc2c1 [Compound I-3, 4-[3-(6-tert-Butyl-1-oxo-1H-phthalazin-2-yl)-2-hydroxymethyl-phenyl]-1H-pyrrole-2-carboxylic acid amide] | 27 | > 5000
CC(C)(C)c1cc(F)c2c(=O)n(-c3cccc(-n4cc(C(N)=O)c5ccc(-c6ccccc6Cl)nc54)c3CO)ncc2c1 [Compound I-47, 1-[3-(6-tert-Butyl-8-fluoro-1-oxo-1H-phthalazin-2-yl)-2-hydroxymethyl-phenyl]-6-(2-chloro-phenyl)-1H-pyrrolo[2,3-b]pyridine-3-carboxylic acid amide] | 28.4 | 
CN1Cc2cc(C(C)(C)C)ccc2C(=O)N1c1cccc(-c2cc(C(N)=O)n(C)c2)c1CO [Compound I-14, 4-[3-(6-tert-Butyl-3-methyl-1-oxo-3,4-dihydro-1H-phthalazin-2-yl)-2-hydroxymethyl-phenyl]-1-methyl-1H-pyrrole-2-carboxylic acid amide] | 26.7 | 4740
Cn1cc(-c2cccc(-n3ncc4cc(C(C)(C)C)cc(F)c4c3=O)c2CO)cc1C(N)=O [Compound I-9, 4-[3-(6-tert-Butyl-8-fluoro-1-oxo-1H-phthalazin-2-yl)-2-hydroxymethyl-phenyl]-1-methyl-1H-pyrrole-2-carboxylic acid amide] | 2.51 | 1260
CC(C)(C)c1cc(F)c2c(=O)n(-c3cccc(-n4cc(C(N)=O)c5ccc(N6CCS(=O)(=O)CC6)nc54)c3CO)ncc2c1 [Compound I-50, 1-[3-(6-tert-Butyl-8-fluoro-1-oxo-1H-phthalazin-2-yl)-2-hydroxymethyl-phenyl]-6-(1,1-dioxo-1λ^6-thiomorpholin-4-yl)-1H-pyrrolo[2,3-b]pyridine-3-carboxylic acid amide] | 12.7 | 
CC(C)(C)c1cc(F)c2c(=O)n(-c3cccc(-n4cc(C(N)=O)cn4)c3CO)ncc2c1 [Compound I-41, 1-[3-(6-tert-Butyl-8-fluoro-1-oxo-1H-phthalazin-2-yl)-2-hydroxymethyl-phenyl]-1H-pyrazole-4-carboxylic acid amide] | 268 | 
CC(C)(C)c1ccc2c(=O)n(-c3cccc(-n4cc(C(N)=O)c5ccccc54)c3CO)ncc2c1 [Compound I-18, 1-[3-(6-tert-Butyl-1-oxo-1H-phthalazin-2-yl)-2-hydroxymethyl-phenyl]-1H-indole-3-carboxylic acid amide] |  | 10700
CC(C)(C)c1cc(F)c2c(=O)n(-c3cccc(-c4coc(C(N)=O)c4)c3CO)ncc2c1 [Compound I-11, 4-[3-(6-tert-Butyl-8-fluoro-1-oxo-1H-phthalazin-2-yl)-2-hydroxymethyl-phenyl]-furan-2-carboxylic acid amide] | 51.4 | > 500
CN1CCN(c2ccc3c(C(N)=O)cn(-c4cccc(-n5ncc6cc(C(C)(C)C)cc(F)c6c5=O)c4CO)c3n2)CC1 [Compound I-43, 1-[3-(6-tert-Butyl-8-fluoro-1-oxo-1H-phthalazin-2-yl)-2-hydroxymethyl-phenyl]-6-(4-methyl-piperazin-1-yl)-1H-pyrrolo[2,3-b]pyridine-3-carboxylic acid amide] | 2.83 | 
CC(=O)c1ccc(Nc2nn(-c3cccc(-n4ncc5cc(C(C)(C)C)ccc5c4=O)c3CO)cc2C(N)=O)cc1 [Compound I-53, 3-(4-Acetyl-phenylamino)-1-[3-(6-tert-butyl-1-oxo-1H-phthalazin-2-yl)-2-hydroxymethyl-phenyl]-1H-pyrazole-4-carboxylic acid amide] | 0.12 | 
